Source: patent publication US6350744B1, “Compounds having cytokine inhibitory activity” (Merck & Co., Inc., priority 1998, dated 2002)

melting point	Structure (SMILES)
148 to 150 °C	FC(F)(F)c1cccc(-c2cc(C3CCNCC3)nnc2-c2ccncc2)c1 [Example 28, 3-(pyridine-4-yl)-4-(3-trifluoromethylphenyl)-6-(piperidin-4-yl)pyridazine]
188 to 189 °C	CN1CCC(c2cc(-c3ccncc3)c(-c3cccc(C(F)(F)F)c3)nn2)CC1 [Example 11, 3-(3-trifluoromethylphenyl)-4(pyridine-4-yl)-6-(N-methylpiperidin-4-yl)pyridazine]
